# System: MYC mRNA expression in MV-4-11 xenograft tumor
# Test: PKPD of compound 4009 in MV-4-11 subcutaneous xenograft (MYC mRNA by RT-qPCR)
# Assay type: in vivo, BALB/c nude mice
# Conditions: 15 mg/kg single dose intragastric; 1, 2, 4, 6, 8, 24 h
# Protocol: Cell Culture MV-4-11 (purchased from ATCC, CRL-9591) cells were single-layer-cultured in vitro, culture condition is IMDM medium supplemented with 10% heat-inactivated fetal bovine serum and 1% penicillin-streptomycin double antibody, at 37° C., 5% CO2. According to the growth of the cells, the treatment was passaged twice a week. When the cells are in the exponential growth phase, the cells are collected, counted, and inoculated.
# Experimental protocol: 0.2 mL of cell suspension containing about […] cells (cell suspended in IMDM medium and added with 50% Matrigel) was inoculated subcutaneously into the right back of each mouse. […] Grouping method: animals were weighed before dosing and tumor volume was measured. […]
# Preparation of cDNA: The concentration of RNA (NanaDrop2000) was determined, 2 μg RNA was used as a template for reverse transcription, and cDNA preparation (RT-PCR) was performed using a High Capacity cDNA Reverse Transcription Kit.
# Quantitative amplification of the target gene: Real-time qPCR amplification was performed using TaqMan fluorescent probe and cDNA as a template. […] The reaction system was separately added to a 384-well plate, and each sample of the target gene and the comparative gene was measured for three replicate wells, and the reaction was run on a prepared 384-well plate instrument (ABI ViiA7).
structure (smiles),measurement,value
"CCS(=O)(=O)Cc1ccc2c(c1)-c1cn(C)c(=O)cc1CN=C2c1ccc(F)cc1 [Compound 4009, 7-(4-fluorophenyl)-2-methyl-10-(ethylsulfonemethyl)-2H-benzo[c]pyrido[3,4-e]azepin-3(5H)-ketone]",inhibition of the expression level of MYC mRNA in the tumor versus concentration of the drug in the tumor,good correlation

# Reference: patent publication US20190284192A1, “NITROGENOUS MACROCYCLIC COMPOUND, PREPARATION METHOD THEREFOR, PHARMACEUTICAL COMPOSITION AND APPLICATION THEREOF” (LUOXIN PHARMACEUTICAL (SHANGHAI) CO., LTD., priority 2016, published 2019)
